Experiment [1] addresses Sodium-dependent dopamine transporter (Rattus norvegicus, UniProt P23977). The experiment is described as follows: Displacement of [3H]WIN-35428 from DAT in Sprague-Dawley rat brain after 2 hrs by liquid scintillation analysis.
Experiment [2] deals with Sodium-dependent serotonin transporter (Rattus norvegicus, UniProt P31652). The experiment is described as follows: Displacement of [3H]citalopram from SERT in Sprague-Dawley rat brain after 2 hrs by liquid scintillation analysis. In general terms: In a radioligand displacement assay an active substance lowers the binding of a labelled ligand.
The target of the next experiment is Transporter (Rattus norvegicus, UniProt Q63380). The experiment in a line: Displacement of [3H]nisoxetine from NAT in Sprague-Dawley rat brain after 4 hrs by liquid scintillation analysis.

Here are results for 3 molecules from BindingDB's records for doi:10.1016/j.bmcl.2009.07.064 (University of Glasgow, 2009).

Sodium-dependent dopamine transporter, sequence (P23977 whole entry): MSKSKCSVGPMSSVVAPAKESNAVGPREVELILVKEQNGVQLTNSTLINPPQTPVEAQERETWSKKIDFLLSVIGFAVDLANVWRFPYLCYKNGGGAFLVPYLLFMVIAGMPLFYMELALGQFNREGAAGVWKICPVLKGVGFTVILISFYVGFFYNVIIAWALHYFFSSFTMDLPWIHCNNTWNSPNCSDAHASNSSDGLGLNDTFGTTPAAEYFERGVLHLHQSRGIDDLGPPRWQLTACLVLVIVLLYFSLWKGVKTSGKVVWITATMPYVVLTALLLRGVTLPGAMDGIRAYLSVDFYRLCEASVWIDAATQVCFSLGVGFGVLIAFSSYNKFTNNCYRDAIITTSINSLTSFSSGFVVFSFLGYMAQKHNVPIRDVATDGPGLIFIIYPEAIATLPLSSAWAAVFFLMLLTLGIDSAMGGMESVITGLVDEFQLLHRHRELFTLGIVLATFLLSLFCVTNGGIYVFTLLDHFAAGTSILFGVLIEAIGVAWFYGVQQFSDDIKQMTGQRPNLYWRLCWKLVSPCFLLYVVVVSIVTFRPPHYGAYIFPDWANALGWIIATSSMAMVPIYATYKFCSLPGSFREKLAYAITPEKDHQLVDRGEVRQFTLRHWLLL
Transporter, sequence (Q63380 whole entry): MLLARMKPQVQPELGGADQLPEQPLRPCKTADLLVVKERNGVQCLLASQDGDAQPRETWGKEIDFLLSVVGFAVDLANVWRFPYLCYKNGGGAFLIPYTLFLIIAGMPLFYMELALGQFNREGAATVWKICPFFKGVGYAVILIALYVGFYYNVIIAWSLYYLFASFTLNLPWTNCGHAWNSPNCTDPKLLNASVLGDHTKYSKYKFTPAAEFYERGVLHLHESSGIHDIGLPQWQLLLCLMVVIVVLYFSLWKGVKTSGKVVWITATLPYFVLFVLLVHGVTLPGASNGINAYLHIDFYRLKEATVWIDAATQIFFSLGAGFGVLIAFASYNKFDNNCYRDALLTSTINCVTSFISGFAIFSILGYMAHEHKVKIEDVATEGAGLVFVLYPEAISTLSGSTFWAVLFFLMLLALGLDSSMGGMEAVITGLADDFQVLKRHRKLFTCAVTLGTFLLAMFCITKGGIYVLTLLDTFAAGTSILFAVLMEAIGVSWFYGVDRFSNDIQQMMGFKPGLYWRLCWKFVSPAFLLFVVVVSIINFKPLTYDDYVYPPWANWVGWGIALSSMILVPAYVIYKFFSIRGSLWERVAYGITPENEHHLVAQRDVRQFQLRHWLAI
Sodium-dependent serotonin transporter, sequence (P31652 whole entry): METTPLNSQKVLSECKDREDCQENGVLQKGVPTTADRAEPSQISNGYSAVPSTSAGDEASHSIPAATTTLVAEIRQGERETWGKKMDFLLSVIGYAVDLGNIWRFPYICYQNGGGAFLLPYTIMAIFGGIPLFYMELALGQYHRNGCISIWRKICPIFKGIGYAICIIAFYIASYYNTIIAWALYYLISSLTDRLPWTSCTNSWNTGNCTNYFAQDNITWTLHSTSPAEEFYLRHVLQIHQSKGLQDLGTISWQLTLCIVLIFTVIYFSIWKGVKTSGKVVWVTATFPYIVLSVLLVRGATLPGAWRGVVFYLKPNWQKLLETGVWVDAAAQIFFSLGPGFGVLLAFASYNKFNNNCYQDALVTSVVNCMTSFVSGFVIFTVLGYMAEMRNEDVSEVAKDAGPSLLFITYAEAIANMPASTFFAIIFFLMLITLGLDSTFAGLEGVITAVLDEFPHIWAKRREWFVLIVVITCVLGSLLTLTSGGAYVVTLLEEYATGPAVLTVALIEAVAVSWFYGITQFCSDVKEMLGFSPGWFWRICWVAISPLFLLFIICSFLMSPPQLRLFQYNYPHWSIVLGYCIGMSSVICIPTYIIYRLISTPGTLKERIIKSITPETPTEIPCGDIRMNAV

Usually Ki stands for the dissociation constant of the complex between target and ligand, obtained from inhibition or displacement. A low value points to tighter binding. Consider `Ic1ccc(O[C@@H](c2ccccc2)[C@H]2CNCCO2)cc1` [(2R,3S)-2-[(4-Iodophenoxy)phenylmethyl]morpholine], for which the Ki is 2100 nM in experiment [1], 34.5 nM in experiment [2] and 1100 nM on Transporter.

As to `Ic1ccccc1O[C@@H](c1ccccc1)[C@H]1CNCCO1` [(2R,3S)-2-[(2-Iodophenoxy)phenylmethyl]morpholine], the values for the Ki (in experiment [1]; in experiment [2]; at Transporter) were 526 nM, 51.5 nM and 8.4 nM, respectively.

As to `Ic1cccc(O[C@@H](c2ccccc2)[C@H]2CNCCO2)c1` [(2R,3S)-2-[(3-Iodophenoxy)phenylmethyl]morpholine], the results for the inhibition constant Ki (in experiment [1]; in experiment [2]; at Transporter) were 1900 nM, 154 nM and 1700 nM, respectively.
